Reference: US10087148B2, “Quinazolines as biogenic amine transport modulators” (THE UNITED STATES OF AMERICA AS REPRESENTED BY THE …, priority 2014, dated 2018)
Read-outs that look alike come from different tables or passages of the source.

What was measured:
[1] = biological target: T1, dopamine transporter (DAT) (Rattus norvegicus (Rat), UniProt P23977); assay: Dopamine transporter-mediated [3H]MPP+ release (d-amphetamine-induced, shift experiments) in rat caudate synaptosomes; assay type: biochemical; settings: for Apparent Kc: [Blocker]/((EC50-2/EC50-1) − 1); for Emax: read-out: d-Amphetamine Emax in presence of blocker
[2] = biological target: serotonin transporter (SERT) (Rattus norvegicus (Rat), UniProt P31652); assay: [3H]serotonin (5-HT) uptake inhibition in rat brain synaptosomes; assay type: biochemical; settings: for Emax: read-out: SERT Uptake Emax
Description: Uptake inhibition assay for the serotonin transporter was conducted in rat brain synaptosomes as described elsewhere with minor modifications (Rothman et al., Synapse 39, 32-41 (2001)). Freshly removed whole brain minus cerebellum and caudate was homogenized in 10% ice-cold sucrose with 12 strokes of a hand-held Potter-Elvehjem homogenizer followed by centrifugation at 1000×g for 10 min. The supernatants were saved on ice and used immediately. Transporter activity at SERT was assessed using 5 nM [^3H]serotonin. The assay buffer was Krebs-phosphate buffer containing 154.4 mM NaCl, 2.9 mM KCl, 1.1 mM CaCl2, 0.83 mM MgCl2, 5 mM glucose, 1 mg/mL ascorbic acid, and 50 μM pargyline. […] Uptake inhibition assays were conducted at 25° C. and were initiated by adding 100 μL of tissue to 900 μL assay buffer containing test drug and [^3H]serotonin. Test drugs were diluted in assay buffer containing 1 mg/mL bovine serum albumin. Nonspecific uptake was measured by incubating in the presence of 10 μM indatraline. The reactions were stopped after 30 min by rapid vacuum filtration with a cell harvester (BRANDEL) over GF/B filters (Whatman) presoaked in wash buffer maintained at 25° C. (10 mM Tris-HCl, pH 7.4/150 mM NaCl). Filters were rinsed with 6 mL wash buffer and retained tritium was quantified by a MicroBeta liquid scintillation counter (PerkinElmer) after overnight extraction in 0.6 mL of liquid scintillation cocktail (Cytoscint, ICN). The data from three experiments were pooled and fit to a dose-response curve equation (using Kaleidagraph), to yield an Emax and EC50 value.

[3] = biological target: norepinephrine transporter (NET) (Rattus norvegicus, UniProt Q63380); assay: [3H]norepinephrine (NE) uptake inhibition in rat brain synaptosomes; assay type: biochemical; settings: for Emax: read-out: NET Uptake Emax; for IC50: read-out: NET Uptake IC50, mean ± S.D., n = 3
Description: Uptake inhibition assay for the norepinephrine transporter was conducted in rat brain synaptosomes as described elsewhere with minor modifications (Rothman et al., Synapse 39, 32-41 (2001)). Freshly removed whole brain minus cerebellum and caudate was homogenized in 10% ice-cold sucrose with 12 strokes of a hand-held Potter-Elvehjem homogenizer followed by centrifugation at 1000×g for 10 minutes. The supernatants were saved on ice and used immediately. Transporter activity at NET was assessed using 10 nM [^3H]norepinephrine. The assay buffer was Krebs-phosphate buffer containing 154.4 mM NaCl, 2.9 mM KCl, 1.1 mM CaCl2, 0.83 mM MgCl2, 5 mM glucose, 1 mg/mL ascorbic acid, and 50 μM pargyline. […] Uptake inhibition assays were conducted at 37° C. and were initiated by adding 100 μL of tissue to 900 μL assay buffer containing test drug and [^3H]norepinephrine. Test drugs were diluted in assay buffer containing 1 mg/mL bovine serum albumin. Nonspecific uptake was measured by incubating in the presence of 10 μM indatraline. The reactions were stopped after 10 minutes by rapid vacuum filtration with a cell harvester (BRANDEL) over GF/B filters (Whatman) presoaked in wash buffer maintained at 25° C. (10 mM Tris-HCl, pH 7.4/150 mM NaCl). Filters were rinsed with 6 mL wash buffer and retained tritium was quantified by a MicroBeta liquid scintillation counter (PerkinElmer) after overnight extraction in 0.6 mL of liquid scintillation cocktail (Cytoscint, ICN). The data from three experiments were pooled and fit to a dose-response curve equation (using Kaleidagraph), to yield an Emax and EC50 value.

[4] = biological target: T1, dopamine transporter (DAT); assay: [3H]dopamine (DA) uptake inhibition in rat brain (caudate) synaptosomes; assay type: biochemical
DAT = DAT (Rattus norvegicus (Rat), UniProt P23977); assay: Inhibition of [3H]WIN35428 binding to rat caudate DAT; settings: for Emax / IC50 / DAT Binding Emax / DAT Binding IC50: [3H]WIN35428, mean ± S.D., n = 3; for IC50 / DAT Binding IC50: unit as printed in head (text gives 1100 nM where table prints 1.1)
Description: All of the test compounds were synthesized as described herein. […] The data from three experiments were pooled and fit to a dose-response curve equation (using KaleidaGraph; Synergy Software, Reading, Pa.) to yield an Emax and IC50 value. […] Selected compounds were also tested for their ability to inhibit [^3H]WIN35428 binding to rat caudate DAT.

[5] = [3H]MPP+ release, blocker concentration per row, mean ± S.D., n = 3
[6] = mean ± S.D., n = 3, read-out: DAT Uptake Emax
[7] = values in Table 9, read-out: Emax for DAT Uptake Inhibition
[8] = rat brain synaptosomes, 5 nM [3H]serotonin, mean ± SD

serotonin transporter (SERT), sequence (P31652 whole entry): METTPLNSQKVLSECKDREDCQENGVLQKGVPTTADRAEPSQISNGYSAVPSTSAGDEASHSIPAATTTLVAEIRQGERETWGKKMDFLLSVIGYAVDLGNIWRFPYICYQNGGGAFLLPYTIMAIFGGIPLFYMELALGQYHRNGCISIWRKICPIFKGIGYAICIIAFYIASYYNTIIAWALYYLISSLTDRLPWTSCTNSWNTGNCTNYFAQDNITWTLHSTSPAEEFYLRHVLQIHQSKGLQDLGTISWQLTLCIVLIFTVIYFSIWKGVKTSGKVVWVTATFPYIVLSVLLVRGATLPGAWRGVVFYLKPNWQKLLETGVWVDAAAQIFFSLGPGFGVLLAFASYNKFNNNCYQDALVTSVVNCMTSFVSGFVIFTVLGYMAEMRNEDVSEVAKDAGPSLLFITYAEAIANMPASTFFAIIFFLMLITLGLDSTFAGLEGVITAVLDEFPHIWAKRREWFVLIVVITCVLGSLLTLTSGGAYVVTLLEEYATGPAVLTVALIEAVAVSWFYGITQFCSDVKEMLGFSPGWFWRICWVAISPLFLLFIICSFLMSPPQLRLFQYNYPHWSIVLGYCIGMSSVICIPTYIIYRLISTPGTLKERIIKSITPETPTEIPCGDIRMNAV
T1 sequence (P23977 whole entry): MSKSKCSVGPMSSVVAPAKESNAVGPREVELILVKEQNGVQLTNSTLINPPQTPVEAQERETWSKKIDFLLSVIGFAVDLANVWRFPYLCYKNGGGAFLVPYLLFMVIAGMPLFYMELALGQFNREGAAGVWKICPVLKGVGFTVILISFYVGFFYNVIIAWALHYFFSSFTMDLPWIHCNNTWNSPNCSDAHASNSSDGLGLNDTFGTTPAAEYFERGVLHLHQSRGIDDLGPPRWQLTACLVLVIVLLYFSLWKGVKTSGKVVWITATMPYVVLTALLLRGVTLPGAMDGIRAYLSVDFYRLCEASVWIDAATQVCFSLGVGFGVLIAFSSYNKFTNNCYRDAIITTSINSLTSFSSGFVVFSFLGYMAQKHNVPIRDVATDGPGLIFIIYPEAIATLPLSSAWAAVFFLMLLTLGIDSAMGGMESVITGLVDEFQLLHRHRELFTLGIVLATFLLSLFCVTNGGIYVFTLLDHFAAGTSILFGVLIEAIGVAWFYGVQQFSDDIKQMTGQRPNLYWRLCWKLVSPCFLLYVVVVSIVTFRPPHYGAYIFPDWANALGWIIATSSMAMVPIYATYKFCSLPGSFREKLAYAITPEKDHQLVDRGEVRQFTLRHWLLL
DAT, sequence (P23977 whole entry): as above
norepinephrine transporter (NET), sequence (Q63380 1-617): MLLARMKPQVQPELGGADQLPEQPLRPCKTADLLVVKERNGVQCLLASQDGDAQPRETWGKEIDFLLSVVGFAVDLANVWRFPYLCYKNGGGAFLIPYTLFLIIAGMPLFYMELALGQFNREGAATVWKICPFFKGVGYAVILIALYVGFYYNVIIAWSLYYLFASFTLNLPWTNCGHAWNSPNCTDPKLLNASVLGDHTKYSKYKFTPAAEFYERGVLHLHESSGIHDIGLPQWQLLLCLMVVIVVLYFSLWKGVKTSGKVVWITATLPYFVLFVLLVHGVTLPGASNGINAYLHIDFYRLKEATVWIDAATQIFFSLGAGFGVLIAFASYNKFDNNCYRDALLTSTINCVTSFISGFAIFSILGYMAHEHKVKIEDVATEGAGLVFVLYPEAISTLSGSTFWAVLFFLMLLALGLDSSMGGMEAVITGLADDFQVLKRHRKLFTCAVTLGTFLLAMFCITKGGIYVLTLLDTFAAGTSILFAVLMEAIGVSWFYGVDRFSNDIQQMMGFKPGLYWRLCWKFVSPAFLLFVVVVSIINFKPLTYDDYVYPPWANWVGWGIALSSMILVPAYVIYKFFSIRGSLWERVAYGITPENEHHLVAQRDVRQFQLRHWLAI

Row | Compound | Apparent Kc ([1]; [3H]MPP+ release) [nM] | Emax [1, 5] [%] | Emax ([2]; mean ± S.D., n = 3) [%] | Emax [3] [%] | IC50 [3] [nM] | Emax [4, 6] [%] | Emax [4, 7] [%] | Emax (DAT) [%] | IC50 (DAT) [nM] | other results
1 | Cc1cc2nccn2cc1-c1nc(NCC(c2ccccc2)c2ccccc2)c2ccccc2n1 [SRI-30827] | 267 | 104 ± 3 | 58 ± 3 | 67 ± 3 | 21 ± 7 | 63 ± 2 | 63 | 79 ± 3 | 1990 ± 330 | 
2 | Cc1cc2nccn2cc1-c1nc(NCC(O)(c2ccccc2)c2ccccc2)c2ccccc2n1 [SRI-31143] | 46 | 104 ± 4 | 51 ± 2 | 69 ± 4 | 16 ± 5 | 69 ± 1 | 67 | 52 ± 8 | 3390 ± 1990 | 
3 | CN(C)c1ncc(-c2nc(NCCC(c3ccccc3)c3ccccc3)c3ccccc3n2)cn1 [SRI-29212] | 64580 | 103 ± 2 | 50 ± 7 | 64 ± 5 | 8130 ± 2270 | 67 ± 4 | 67 | 72 ± 4 | 2200 ± 500 | IC50 ([2]; mean ± S.D., n = 3): 3800 ± 1640 nM; IC50 ([4]; mean ± S.D., n = 3): 672 ± 204 nM
4 | Cl.Fc1ccc2c(NCC(c3ccccc3)c3ccccc3)nc(-c3ccc4nccn4c3)nc2c1 [SRI-31034] | 3200 |  |  | 63 ± 3 | 94 ± 22 |  |  |  |  | Emax [1]: 104 ± 5%; Emax [2]: 49 ± 2%; Emax ([4]; read-out: DAT Uptake Emax): 69 ± 1%; Emax ([4]; read-out: Emax for DAT Uptake Inhibition): 69%; DAT Binding Emax (DAT): Inactive; DAT Binding IC50 (DAT): Inactive
5 | c1ccc(C(CNc2nc(-c3cnc4nccn4c3)nc3ccccc23)C2CCCCC2)cc1 (centres unmarked) [SRI-30517] | 1600 | 104 ± 4 | 54 ± 1 | 70 ± 2 | 95 ± 12 | 70 ± 1 | 70 | 43 ± 4 | 160 ± 80 | 
6 | Cc1cc2nccn2cc1-c1nc(NCC(c2ccccc2)c2ccncc2)c2ccccc2n1 (centres unmarked) [SRI-31142] | 400 | 103 ± 3 | 48 ± 1 | 61 ± 2 | 17 ± 4 | 72 ± 2 | 72 | 92 ± 4 | 2340 ± 450 | 
7 | c1ccc(C(CNc2nc(-c3ccc4ncnn4c3)nc3ccccc23)c2ccccc2)cc1 [SRI-30522] |  | 105 ± 4 | 35 ± 3 | 40 ± 5 | 86 ± 55 | 63 ± 1 | 63 |  |  | DAT Binding Emax (DAT): Inactive; DAT Binding IC50 (DAT): Inactive
8 | CS(=O)(=O)Nc1ccc(-c2nc(NCC(c3ccccc3)c3ccncc3)c3ccccc3n2)cc1 (centres unmarked) [Compound 10, N-(4-(4-((2-phenyl-2-(pyridin-4-yl)ethyl)amino)quinazolin-2-yl)phenyl)methanesulfonamide] |  | 103 ± 3 | 56 ± 1 | 76 ± 2 | 44 ± 6 |  |  |  |  | Emax at 0.125 µM ([1]; read-out: D-Amphetamine Emax in presence of compound, [3H]MPP+ release, compound concentration 125 nM, mean ± SD): 103 ± 3%; 5HT Uptake Emax [2, 8]: 56 ± 1 % I; EC50 [2, 8]: 8.7 ± 0.9 nM; NE Uptake Emax ([3]; rat brain synaptosomes, 10 nM [3H]norepinephrine, mean ± SD): 76 ± 2 % I; EC50 ([3]; read-out: NE Uptake EC50, rat brain synaptosomes, 10 nM [3H]norepinephrine, mean ± SD): 44 ± 6 nM; DAT Uptake Emax ([4]; mean ± S.D., n = 3): 71 ± 1%; DA Uptake Emax ([4]; rat caudate synaptosomes, 5 nM [3H]dopamine, mean ± SD): 71 ± 1 % I; DAT Binding Emax (DAT): 52 ± 6%
9 | c1ccc(C(CNc2nc(-c3ccc4nccn4c3)nc3ccccc23)c2ccc[nH]2)cc1 (centres unmarked) [SRI-30826] | 1600 | 105 ± 4 | 56 ± 2 | 81 ± 2 | 88 ± 15 | 64 ± 2 | 64 | 42 ± 3 | 1280 ± 400 | 
10 | c1ccc(C(CNc2nc(-c3cccnc3)nc3ccccc23)c2ccccc2)cc1 [SRI-29072] | 25830 | 96 ± 3 | 56 ± 9 | 62 ± 5 | 5850 ± 1750 | 71 ± 3 | 71 | 77 ± 2 | 2700 ± 300 | IC50 ([2]; mean ± S.D., n = 3): 6380 ± 2640 nM; IC50 ([4]; mean ± S.D., n = 3): 212 ± 49 nM
11 | Cc1cc2nccn2cc1-c1nc(NCC(c2ccccc2)c2ccc[nH]2)c2ccccc2n1 (centres unmarked) [SRI-31040] | 55 | 105 ± 3 | 54 ± 2 | 70 ± 4 | 11 ± 4 | 69 ± 1 | 69 | 91 ± 7 | 3740 ± 1100 | 
12 | c1ccc(C(CCNc2nc(-c3cccnc3)nc3ccccc23)c2ccccc2)cc1 [SRI-29070] | 7050 | 98 ± 1 | 48 ± 3 | 64 ± 10 | 1740 ± 1150 | 66 ± 4 | 66 | 71 ± 4 | 1800 ± 400 | IC50 ([2]; mean ± S.D., n = 3): 699 ± 164 nM; IC50 ([4]; mean ± S.D., n = 3): 174 ± 58 nM
13 | CS(=O)(=O)Nc1ccc(-c2nc(NCC(c3ccccc3)c3ccccc3)c3ccccc3n2)cc1 [Compound 50, N-(4-(4-((2,2-diphenylethyl)amino)quinazolin-2-yl)phenyl)methanesulfonamide] |  | 102 ± 2 | 56 ± 2 | 71 ± 2 | 90 ± 15 | 70 ± 2 | 70 | 65 ± 6 |  | 
14 | CN(C)c1ccc(-c2nc(NCC(c3ccccc3)c3ccccc3)c3ccccc3n2)cc1 [Compound 51, 2-(4-(dimethylamino)phenyl)-N-(2,2-diphenylethyl)quinazolin-4-amine] |  | 101 ± 2 | 44 ± 4 | 68 ± 7 | 143 ± 61 | 70 ± 3 | 70 | 100 ± 3 |  | DAT binding IC50 weaker than IC50 for inhibition of DAT uptake (DAT; binding IC50 / uptake IC50): 155 fold
15 | c1ccc(C(CNc2nc(-c3ccc4[nH]ccc4c3)nc3ccccc23)c2ccccc2)cc1 [SRI-29155] | 456 | 94 ± 2 | 54 ± 2 | 70 ± 3 | 290 ± 52 | 74 ± 1 | 74 | 87 ± 4 | 900 ± 200 | 
16 | c1ccc(C(CNc2nc(-c3cnc4nccn4c3)nc3ccccc23)c2ccccc2)cc1 [SRI-29991] | -1070 | 102 ± 2 | 51 ± 1 | 69 ± 2 | 63 ± 9 | 68 ± 1 | 68 | 18 ± 4 | 1220 ± 1120 | 
17 | c1ccc(C(CNc2nc(-c3cnc4nccn4c3)nc3ccccc23)c2ccncc2)cc1 (centres unmarked) [SRI-30810] | 1200 | 104 ± 5 | 51 ± 2 | 69 ± 2 | 60 ± 10 | 64 ± 1 | 64 | 25 ± 2 | 820 ± 360 | 
18 | CN(C)c1ncc(-c2nc(NCC(c3ccccc3)c3ccccc3)c3ccccc3n2)cn1 [SRI-29153] | 1820 | 101 ± 3 | 55 ± 5 | 73 ± 4 | 181 ± 46 | 73 ± 1 | 73 | 76 ± 2 | 1700 ± 200 | 
